The values that follow come from PMC7767178 (International Journal of Molecular Sciences, 2020).

In data set [1] the test system is Salmonella typhimurium ATCC14028. Format: cell-based.
Data set [2] has as its system A. veronii ACCC61732 genomic DNA. Briefly: CD spectra of genomic DNA with peptides. Format: binding. The following applies: mass ratios 2.5 and 10.0, 10 min, room temperature. Here is the method:
CD spectra were performed to examine the secondary structure of genomic DNA from A. veronii ACCC61732 after incubation with peptides. […] The mixtures were loaded into a cuvette of 1.0-mm path length and scanned from 190 to 330 nm at 25 °C using a Pistar π-180 CD spectrometer (Applied Photophysics Ltd., Surry, UK).

For data set [3], the system named is mouse erythrocytes. Briefly: Hemolysis. Format: cell-based. To be noted: 256 μg/mL; 8% mouse erythrocyte suspension, 37 °C, 1 h, absorbance 540 nm. Here is the method:
To determine the hemolysis of peptides, eyeball blood was collected from 6-week-old SPF ICR mice. The blood was centrifuged at 4 °C for 10 min (1500 rpm), washed three times with 0.9% physiological saline, and diluted to 8% suspension. […] Red blood cell suspensions and peptide solutions (100 μL) were mixed in 96-well plates, centrifuged at 4 °C for 5 min (1500 rpm), and incubated at 37 °C for 1 h. The supernatant was added into a 96-well plate and the UV absorbance was measured at 540 nm using a microplate reader. Physiological saline and 0.1% Triton X-100 were used as 0% and 100% hemolytic controls, respectively. The hemolytic ratio was calculated as follows: Hemolysis (%) = [(Abspeptide − Abssaline)/(Abs0.1%Triton X-100 − Abssaline)] × 100% [38].

In data set [4] the test system is Aeromonas veronii ACCC61732. As for the experimental part: (§1) Briefly, the tested strains including Gram-negative bacteria, Gram-positive bacteria, and fungi were cultured to the logarithmic growth phase, diluted to 10^5 CFU/mL, and added into 96-well plates (90 μL/well). Two-fold serial dilutions of peptides or antibiotics dissolved in PBS were added to each well (10 μL/well). […] All experiments were repeated three times.

Data set [5] relates to S. aureus ATCC546. As for the experimental part: as §1
For data set [6], the system named is A. veronii ACCC61732 biofilms. The data set can be described thus: Mouse model of catheter-associated biofilm infection, bacteria in catheter. Format: in vivo, ICR mice. The following applies: 5 μmol/kg peptide or CIP 24 h after catheter implantation, catheters collected after seven days, six mice per group. Here is the method:
Briefly, the catheter was cut into 1 cm segments; each piece was sterilized with 70% ethanol and then dried by air. Bacterial biofilms were developed on the catheter by placing individual segments into tubes containing 1.0 mL of a cell suspension (1 × 10^8 CFU/mL) in TSB. After incubation for 24 h at 37 °C, colonized catheters were recovered aseptically and rinsed with PBS to remove unbound bacteria. ICR female mice (20 ± 5 g) were anesthetized with isoflurane; the flanks were shaved and the skin was cleansed with alcohol. […] The incision was then covered with intact skin and closed with surgical suture line and the skin was disinfected. […] The untreated mice were used as the negative control and the mice with sterile catheter were used as the blank control. The mice were anesthetized and sacrificed after seven days. The catheters in the back of the mice were collected and thoroughly shaken in sterile PBS.

The subject of data set [7] is A. veronii ATCC35624. Format: cell-based.
In data set [8] the test system is A. veronii ACCC61732. The data set can be described thus: Mouse peritonitis model, bacterial translocation to organs. Format: in vivo, ICR mice. The following applies: 5 μmol/kg, 24 h post-treatment, colony counting. Here is the method:
Sera and organs (livers, kidneys, spleens, and lungs) were collected from the mice at 24 h post-treatment. The organs were homogenized in sterile PBS to evaluate bacterial translocation by colony counting. The levels of cytokines (TNF-α, IL-1β, IL-6, and IL-10) in sera were detected using the ELISA kits.

For data set [9], the system named is A. veronii ACCC61732. Briefly: Organ injury in peritonitis model, histology. It is filed as in vivo, mice. The following applies: peptides 5 μmol/kg, CIP 1 μmol/kg. Here is the method:
Livers, kidneys, spleens, and lungs were removed from mice at 24 h and five days post treatment to evaluate the organ injury. After washing with PBS, the organs were fixed in 4% paraform-aldehyde for 24 h at 4 °C, dehydrated by a graded series of ethanol (75‒95%), and infiltrated with xylene. The organs were then embedded in paraffin wax, sectioned, and stained with hematoxylin and eosin. Finally, the tissue samples were fixed and observed by the light microscope. The CIP-treated mice served as the positive control and the PBS group served as the negative control.

Data set [10] has as its system A. veronii ACCC61732. Briefly: ATP release, BacTiter-Glo. The following applies: 8×, 16× and 32× MIC, 60 min, 37 °C, luminescence, n = 3. Format: cell-based. As for the experimental part:
The assay was performed for three biological replicates at 37 °C, with luminescence recorded using a Tecan Infinite M1000 Pro plate reader. The fold reduction of ATP was calculated as: Fold reduction ATP = 1 − (Ltreat − Lmedia/Lcontrol − Lmedia), where Ltreat is the luminescence of treated cells, Lmedia is the luminescence of MHB without cells, and Lcontrol is the luminescence of untreated cells. Resultant graphs show mean (n = 3) and SEM for each data point, prepared in Prism 7 [46].

Data set [11] has as its system A. veronii ACCC61732 mature biofilms. The data set can be described thus: Eradication of mature biofilms, crystal violet. It is filed as cell-based. The following applies: 16× MIC, 24 h on 24 h biofilm. As for the experimental part:
A. veronii ACCC61732 cells (1 × 10^8 CFU/mL) were cultured in TSB medium in the 96-well plates at 37 °C for 24 h.

Data set [12] can be described thus: in vitro. The following applies: mouse, 25% mouse serum.
For data set [13], the system named is MDR A. veronii ACCC61732. The data set can be described thus: Mouse peritonitis model, survival. Format: in vivo, ICR mice. To be noted: 5 μmol/kg i.p. 0.5 h after infection, seven days, six mice. As for the experimental part: […]. The mice injected with only bacteria or saline served as the negative and blank control. The mouse survival was recorded daily for seven days.

Where [14] appears, read: Salmonella typhimurium ATCC14028, broth dilution, 37 °C, 16–18 h, three experiments.
Setting [15] is: Aeromonas veronii ACCC61732 (MDR), broth dilution, 37 °C, 16–18 h, three experiments.
[16] abbreviates: S. aureus ATCC546, broth dilution, 37 °C, 16–18 h, three experiments.
[17] abbreviates: A. veronii ATCC35624, broth dilution, 37 °C, 16–18 h, three experiments.

Values joined by “and” are separate entries in the source; they are usually repeats but may differ in a detail not shown here. Equal values may be shown once. Read-outs that look alike come from different tables or passages of the source. Positions of bridges follow the written chain, without caps; N, C: chain ends. Residues, ends and D or L forms follow the SMILES beside them.

Regarding `CC(C)[C@H]1NC(=O)CNC(=O)[C@@H](CC(N)=O)NC(=O)[C@@H](CCCNC(=N)N)NC(=O)[C@@H](Cc2ccc(O)cc2)NC(=O)[C@@H](C(C)C)NC(=O)[C@H](NC(=O)[C@H](NC(=O)[C@@H](CC(N)=O)NC(=O)[C@@H](Cc2c[nH]c3ccccc23)NC(=O)[C@@H](C)NC(=O)[C@@H](Cc2ccccc2)NC(=O)CN)C(C)C)CSSC[C@H](C(=O)N[C@H](Cc2c[nH]cn2)C(=O)N[C@H](CCCNC(=N)N)C(=O)N[C@H](CCCNC(=N)N)C(=O)N[C@H](C)C(=O)N[C@H](CC(N)=O)C(N)=O)NC(=O)[C@@H](C(C)C)NC(=O)[C@@H](CCCNC(=N)N)NC1=O` [DN6NH2], the MIC – broadly, the least concentration at which growth counts as inhibited – in data set [1] (ATCC14028) is 3.23 µM; in data set [1] (setting [14]) it was 8 µg/mL; in data set [4] (setting [15]) it was 4 μg/mL and 1.62 μM; in data set [5] (ATCC546), 6.46 µM; in [5] (setting [16]) it was 16 µg/mL; in [7] (setting [17]), 64 µg/mL. Also, the minimum inhibitory concentration (MIC) in [7] (ATCC35624) turned out to be 25.86 µM. For the same molecule, in data set [2], the “effect on CD spectrum of genomic DNA” value is listed as “elliptic intensity of the positive band declined”. The hemolysis in data set [3] turned out to be 1.46%. In addition, the “decrease of bacterial cells in the catheter” value in data set [6] came out at 71.55%. Moreover, the “reduction of bacteria in kidneys” value in [8] is recorded as 80.10%. For the same molecule, the “reduction of bacteria in livers” value in data set [8] is recorded as 89.65%. For the same molecule, the “reduction of bacteria in lungs” value in data set [8] amounted to 81.61%. For the same molecule, in data set [8], the “reduction of bacteria in spleens” value turned out to be 70.38%. For the same molecule, in data set [9], the “effect on injury of liver, spleen, kidney and lung” value is “remarkably alleviated the injury of the liver and spleen”. Further, in data set [10], the ATP release is reported as 84.34–86.15%. Besides, in data set [11], the “inhibition of mature biofilms” value is 91.90%. The fraction remaining – broadly, what is left of the initial amount, in per cent – at 2 h in data set [12] is 92.7%. The same molecule showed a share remaining at 4.5 h in data set [12] of 78.4%.
Regarding `CC(C)[C@@H]1NC(=O)CNC(=O)[C@H](CC(N)=O)NC(=O)[C@H](CCCNC(=N)N)NC(=O)[C@H](Cc2ccc(O)cc2)NC(=O)[C@H](C(C)C)NC(=O)[C@@H](NC(=O)[C@@H](NC(=O)[C@H](CC(N)=O)NC(=O)[C@H](Cc2c[nH]c3ccccc23)NC(=O)[C@H](C)NC(=O)[C@H](Cc2ccccc2)NC(=O)CN)C(C)C)CSSC[C@@H](C(=O)N[C@@H](Cc2c[nH]cn2)C(=O)N[C@@H](CCCNC(=N)N)C(=O)N2CCC[C@H]2C(=O)N[C@@H](C)C(=O)N[C@@H](CC(N)=O)C(N)=O)NC(=O)[C@H](C(C)C)NC(=O)[C@H](CCCNC(=N)N)NC1=O` [N6PNH2] (H-GFAWNVCVYRNGVRVCHRPAN-NH2; disulfide 7-16 (inferred)), the MIC in data set [1] (ATCC14028) is 6.62 µM; in data set [1] (setting [14]), 16 µg/mL; in [4] it was 6.62 µM; in data set [4] (setting [15]), 16 µg/mL; in [5] (setting [16]) it was over 64 µg/mL; in data set [7] (setting [17]), 64 µg/mL. The MIC in data set [7] (ATCC35624) was determined as 26.49 µM. Besides, in [2], the “effect on CD spectrum of genomic DNA” value is recorded as “do not affect the double helix of genomic DNA”. The hemolysis in data set [3] is reported as 0.56%. Further, in data set [13], the “survival rate of mice” value is given as 50%. For the same molecule, the “decrease of bacterial cells in the catheter” value in [6] was determined as 54.09%. Further, the “reduction of bacteria in kidneys” value in data set [8] is recorded as 18.36%. Besides, the “reduction of bacteria in livers” value in data set [8] was 31.54%. The “reduction of bacteria in lungs” value in [8] was found to be 15.92%. In addition, the “reduction of bacteria in spleens” value in data set [8] is recorded as 28.47%. The “effect on injury of liver, spleen, kidney and lung” value in data set [9] is “worst therapeutic effect”. The ATP release in data set [10] is on record as 77.39–90.34%. For the same molecule, in [11], the “inhibition of mature biofilms” value stood at 97.16%. In [12], this molecule yielded a share remaining at 2 h of 95.2%. For the same molecule, the fraction remaining at 4.5 h in [12] amounted to 84.9%. Further, in data set [12], the amount remaining at 6 h came out at 79.9%.
